Patent publication US20210205196A1, “PRESERVED COMPOSITIONS” (Conopco, Inc., d/b/a UNILEVER, priority 2018, published 2021)

Key:
[1] = system: Gram Negative non-fermenting bacteria: Pseudomonas aeruginosa, Burkholderia cepacia, Strenotrophomonas sp; test: Modified Ph. Eur. 5.1.3 microbial challenge test in shampoo, Pool 1; type: cell-based
[2] = system: Gram Negative fermenting bacteria: Enterobacter cloacae, Klebsiella sp; test: Modified Ph. Eur. 5.1.3 microbial challenge test in shampoo, Pool 2; type: cell-based
[3] = 0.5% (w/w) acid in shampoo base, pH 5, 7 days
[4] = 0.5% (w/w) acid in shampoo base, pH 5, 14 days (reinoculated at 7 days)
[5] = 0.5% (w/w) acid in shampoo base, pH 5, 21 days (reinoculated at 7 and 14 days)
[6] = 0.5% (w/w) acid in shampoo base, pH 5, 28 days (reinoculated at 7 and 14 days)
[7] = 1.0% (w/w) acid in shampoo base, pH 5, 7 days
[8] = 1.0% (w/w) acid in shampoo base, pH 5, 14 days (reinoculated at 7 days)
[9] = 1.0% (w/w) acid in shampoo base, pH 5, 21 days (reinoculated at 7 and 14 days)
[10] = 1.0% (w/w) acid in shampoo base, pH 5, 28 days (reinoculated at 7 and 14 days)

SMILES	Microbial Log reduction [1, 3]	Microbial Log reduction [1, 4]	Microbial Log reduction [1, 5]	Microbial Log reduction [1, 6]	Microbial Log reduction [1, 7]	Microbial Log reduction [1, 8]	Microbial Log reduction [1, 9]	Microbial Log reduction [1, 10]	Microbial Log reduction [2, 3]	Microbial Log reduction [2, 4]	Microbial Log reduction [2, 5]	Microbial Log reduction [2, 6]	Microbial Log reduction [2, 7]	Microbial Log reduction [2, 8]	Microbial Log reduction [2, 9]	Microbial Log reduction [2, 10]
O=C(O)CC(O)(CC(=O)O)C(=O)O [Citric acid, citric acid]	>5.61 log	3.84 log	>5.74 log	>5.74 log	>5.61 log	>5.56 log	>5.74 log	>5.74 log	4.88 log	>5.69 log	>5.80 log	>5.80 log	4.97 log	>5.69 log	>5.80 log	>5.80 log
C=C(CC(=O)O)C(=O)O [Itaconic acid]	>5.68 log	>5.56 log	>5.74 log	>5.74 log	>5.61 log	>5.56 log	>5.74 log	>5.74 log	>5.88 log	>5.69 log	>5.80 log	>5.80 log	>5.88 log	>5.69 log	>5.80 log	>5.80 log
CC(O)C(=O)O (stereo not drawn) [Lactic acid, lactic acid]	>5.61 log	>5.56 log	>5.74 log	>5.74 log	>5.61 log	>5.56 log	>5.74 log	>5.74 log	3.93 log	>5.69 log	>5.80 log	>5.80 log	>5.88 log	>5.69 log	>5.80 log	>5.80 log
